Like-named read-outs stand apart in the source and are kept apart here.
Legend:
Format in all cases: in vivo
[1] = tested on: Thrips tabaci (Onion thrips); test: Biological comparison b): insecticidal activity against Thrips tabaci, sunflower leaf discs; conditions: foliar, 144 h
Procedure: b) Insecticidal activity against Thrips tabaci (Onion thrips): Sunflower leaf discs were placed on agar in 24-well microtiter plates and sprayed with aqueous test solutions prepared from 10'000 ppm DMSO stock solutions. After drying the leaf discs were infested with a thrips population of mixed ages. The samples were assessed for mortality 6 days after infestation.

[2] = tested on: Plutella xylostella (Diamond back moth); test: Plutella xylostella artificial diet test, L2 larvae; conditions: 120 h, application rate of 200 ppm, mortality and growth inhibition 5 days after infestation
Method in brief: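 Artificial diet in 24-well microtiter plates was treated by pipetting with aqueous test solutions made from 10'000 ppm DMSO stock solutions. Once dry, each well received 10 to 15 second-instar (L2) Plutella xylostella larvae. Mortality and growth inhibition were scored against untreated samples 5 days after infestation.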

[3] = tested on: Tetranychus urticae (Two-spotted spider mite); test: Tetranychus urticae bean leaf disc spray test; conditions: foliar, 192 h, application rate of 200 ppm, mortality on mixed population (mobile stages) 8 days after infestation
Method in brief: (§1)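 Leaf discs on agar sprayed with aqueous dilutions of 10'000 ppm DMSO stocks, then infested after drying: Myzus persicae (sunflower, 200 ppm, mixed ages), mortality at 6 DAT; Thrips tabaci (sunflower, mixed ages), mortality at 6 days; Tetranychus urticae (bean, mixed ages), mobile-stage mortality at 8 days; Spodoptera littoralis (cotton), five L1 larvae per disc.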

[4] = tested on: Euschistus heros (Neotropical Brown Stink Bug); test: Euschistus heros soybean plant spray test, N2 nymphs; conditions: 120 h, application rate of 12.5 ppm, 5 days after infestation, N2 nymphs, read-out: mortality of Euschistus heros
Text: (§2) The pesticidal/insecticidal properties of the compounds according to embodiments 1 or 2 can be illustrated via the following tests: Spodoptera littoralis (Egyptian cotton leaf worm) • Cotton leaf discs were placed onto agar in 24-well microtiter plates and sprayed with aqueous test solutions prepared from 10'000 ppm DMSO stock solutions. After drying the leaf discs were infested with five L1 larvae. […] Plutella xylostella (Diamond back moth): 24-well microtiter plates with artificial diet were treated with aqueous test solutions prepared from 10'000 ppm DMSO stock solutions by pipetting. After drying, the plates were infested with L2 larvae (10 to 15 per well). The samples were assessed for mortality and growth inhibition in comparison to untreated samples 5 days after infestation. […] Diabrotica balteata, (Corn root worm) • Maize sprouts placed onto an agar layer in 24-well microtiter plates were treated with aqueous test solutions prepared from 10'000 ppm DMSO stock solutions by spraying. After drying, the plates were infested with L2 larvae (6 to 10 per well). […] Thrips tabaci (Onion thrips): Sunflower leaf discs were placed on agar in 24-well microtiter plates and sprayed with aqueous test solutions prepared from 10'000 ppm DMSO stock solutions. After drying the leaf discs were infested with a thrips population of mixed ages. The samples were assessed for mortality 6 days after infestation. […] Tetranychus urticae (Two-spotted spider mite): Bean leaf discs on agar in 24-well microtiter plates were sprayed with aqueous test solutions prepared from 10'000 ppm DMSO stock solutions. After drying the leaf discs were infested with a mite population of mixed ages. The samples were assessed for mortality on mixed population (mobile stages) 8 days after infestation. […] Euschistus heros (Neotropical Brown Stink Bug): • Two weeks old soybean plants were sprayed in a turn table spray chamber with the diluted spray solutions. After drying 2 soybean seeds were added and plants were infested with 10 N2 nymphs of the neotropical brown stink bug Euschistus heros in plastic test boxes. The samples were assessed for mortality in comparison to untreated samples 5 days after infestation. • The following compounds gave at least 80% mortality of Euschistus heros at an application rate of 12.5 ppm: Compounds 3 , 4 , 8 , 39 , 43 , 44 , 46 , 75 , 76 , 77 , 78 , 79 , 80 , 81 , 82 , 88 , 90 , 93 and 95 . Myzus persicae (Green peach aphid): Sunflower leaf discs were placed on agar in a 24-well microtiter plate and sprayed with test solutions at an application rate of 200 ppm. After drying, the leaf discs were infested with an aphid population of mixed ages. After an incubation period of 6 DAT, samples were checked for mortality. The following compounds gave at least 50% mortality of Myzus persicae: Compounds 3 , 4 , 8 , 43 , 44 , 75 , 76 , 77 , 80 , 81 , 90 and 92 . Myzus persicae (Green peach aphid): • Test compounds were applied by pipette into 24 well plates and mixed with Sucrose solution. Application rate: 12.5ppm. The plates were closed with a stretched parafilm. A plastic stencil with 24 holes is placed onto the plate and infested pea seedlings were placed directly on the Parafilm. The infested plate is closed with a gel blotting paper and another plastic stencil and then turned upside down. […]

[5] = tested on: Diabrotica balteata, (Corn root worm); test: Diabrotica balteata maize sprout spray test, L2 larvae; conditions: 96 h, application rate of 200 ppm, 4 days after infestation, L2 larvae, read-out: mortality
Method in brief: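 Test solutions in water, made from DMSO stock solutions at 10'000 ppm, were sprayed onto maize sprouts resting on an agar layer in 24-well microtiter plates. Once the treated sprouts had dried, each well was infested with 6 to 10 second-instar (L2) Diabrotica balteata corn rootworm larvae, and mortality was then scored as percent.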

[6] = tested on: Thrips tabaci (Onion thrips); test: Thrips tabaci sunflower leaf disc spray test; conditions: foliar, 144 h, application rate of 200 ppm, mortality 6 days after infestation, mixed ages
Method in brief: as §1

[7] = tested on: Diabrotica balteata (Corn root worm); test: Biological comparison a): insecticidal activity against Diabrotica balteata, maize sprouts; conditions: 96 h, 4 days after infestation; for mortality at 0.195 ppm: Concentration 0.195 ppm; for mortality at 0.781 ppm: Concentration 0.781 ppm; for mortality at 3.12 ppm: Concentration 3.12 ppm; for mortality at 12.5 ppm: Concentration 12.5 ppm; for mortality at 50 ppm: Concentration 50 ppm
Text: as §2

[8] = tested on: Spodoptera littoralis (Egyptian cotton leaf worm); test: Spodoptera littoralis cotton leaf disc spray test, L1 larvae; conditions: foliar, 72 h, application rate of 200 ppm, 3 days after infestation, L1 larvae, read-out: mortality
Method in brief: as §1

[9] = tested on: Myzus persicae (Green peach aphid); test: Myzus persicae sucrose solution / Parafilm feeding test; conditions: 120 h, Application rate: 12.5ppm, sucrose solution, 5 days after infestation, read-out: mortality of Myzus persicae
Text: as §2

[10] = tested on: Myzus persicae (Green peach aphid); test: Myzus persicae sunflower leaf disc spray test; conditions: foliar, 144 h, application rate of 200 ppm, leaf disc spray, 6 DAT, read-out: mortality of Myzus persicae
Text: as §2

[11] = tested on: Spodoptera littoralis (Egyptian cotton leaf worm); test: Biological comparison c): insecticidal activity against Spodoptera littoralis, larvicide L-3, feeding/contact, soybean plants; conditions: 120 h, 5 days after infestation, L3 larvae; for mortality at 0.05 ppm: Concentration 0.05 ppm; for mortality at 0.2 ppm: Concentration 0.2 ppm; for mortality at 0.8 ppm: Concentration 0.8 ppm; for mortality at 3 ppm: Concentration 3 ppm; for mortality at 12.5 ppm: Concentration 12.5 ppm
Text: c) Insecticidal activity against Spodoptera littoralis (Egyptian cotton leaf worm): (larvicide L-3, feeding/contact) Soybean plants are sprayed with diluted test solutions in an application chamber. The plants (2 replicates) are infested with 10 L3 larvae 1 day after treatment. Samples are checked 5 days after infestation for mortality, feeding behavior, and growth regulation.

SMILES | pest or weed control at 200 ppm [2] [%] | pest or weed control at 200 ppm [3] [%] | mortality at 12.5 ppm [4] [%] | mortality at 200 ppm [5] [%] | pest or weed control at 200 ppm [6] [%] | mortality at 0.195 ppm [7] [%] | mortality at 0.781 ppm [7] [%] | mortality at 3.12 ppm [7] [%] | mortality at 12.5 ppm [7] [%] | mortality at 50 ppm [7] [%] | mortality at 200 ppm [8] [%] | mortality at 12.5 ppm [9] [%] | mortality at 200 ppm [10] [%] | mortality at 0.05 ppm [11] [%] | mortality at 0.2 ppm [11] [%] | mortality at 0.8 ppm [11] [%] | mortality at 3 ppm [11] [%] | mortality at 12.5 ppm [11] [%] | other results
Cn1nc(C(F)(F)C(F)(F)F)c(C(F)(F)F)c1-n1cc(-c2ccc(Cl)c(C(=O)NC3(C#N)CC3)c2)cn1 [B, reference compound] | – | – | – | – | – | – | – | – | – | – | – | – | – | – | – | – | – | – | mortality at 0.781 ppm [1]: 0%; mortality at 3.12 ppm [1]: 25%; mortality at 12.5 ppm [1]: 90%; mortality at 50 ppm [1]: 100%; mortality at 200 ppm [1]: 100%
Cn1nc(C(F)(F)C(F)(F)F)c(C(F)(F)F)c1-c1cc(-c2ccc(Cl)c(C(=O)NC3(C#N)CC3)c2)on1 [Compound 4, 2-chloro-N-(1-cyanocyclopropyl)-5-[3-[2-methyl-5-(1,1,2,2,2-pentafluoroethyl)-4-(trifluoromethyl)pyrazol-3-yl]isoxazol-5-yl]benzamide] | ≥ 80 | ≥ 80 | ≥ 80 | ≥ 80 | ≥ 80 | 100 | 100 | 100 | 100 | 100 | ≥ 80 | ≥ 80 | ≥ 50 | – | – | – | – | – | mortality at 0.781 ppm ([1]; Concentration 0.781 ppm, 6 days after infestation, read-out: Mortality (%)): 50%; mortality at 3.12 ppm ([1]; Concentration 3.12 ppm, 6 days after infestation, read-out: Mortality (%)): 65%; mortality at 12.5 ppm ([1]; Concentration 12.5 ppm, 6 days after infestation, read-out: Mortality (%)): 80%; mortality at 50 ppm ([1]; Concentration 50 ppm, 6 days after infestation, read-out: Mortality (%)): 100%; mortality at 200 ppm ([1]; Concentration 200 ppm, 6 days after infestation, read-out: Mortality (%)): 100%
Cn1nc(C(F)(F)C(F)(F)F)c(C(F)(F)F)c1-c1cc(-c2ccc(Cl)c(C(=O)NC3(C#N)CC3)c2)sn1 [Compound 44, 2-chloro-N-(1-cyanocyclopropyl)-5-[3-[2-methyl-5-(1,1,2,2,2-pentafluoroethyl)-4-(trifluoromethyl)pyrazol-3-yl]isothiazol-5-yl]benzamide] | ≥ 80 | ≥ 80 | ≥ 80 | ≥ 80 | ≥ 80 | – | – | – | – | – | ≥ 80 | ≥ 80 | ≥ 50 | 0 | 0 | 50 | 95 | 100 | –
Cn1nc(C(F)(F)C(F)(F)F)c(C(F)(F)F)c1-n1cc(-c2ccc(Cl)c(C(=O)NC3(C#N)CC3)c2)nn1 [Compound A, reference compound] | – | – | – | – | – | 0 | 0 | 100 | 100 | 100 | – | – | – | 0 | 0 | 0 | 60 | 100 | –

Reference: EP3325465B1, “PESTICIDALLY ACTIVE PYRAZOLE DERIVATIVES” (Syngenta Participations AG, priority 2015, dated 2017)
